Assay results from patent US12409177B2, “FGFR inhibitors for the treatment of cancer” (BridGene Biosciences, Inc., priority 2019, dated 2025).
Read-outs that look alike come from different tables or passages of the source.

Columns and labels:
[1] = molecular target: FGFR4 (Homo sapiens, UniProt P22455); test: FGFR4 kinase inhibition (IC50); type: biochemical
[2] = molecular target: FGFR1 (Homo sapiens, UniProt P11362); test: FGFR1 kinase inhibition (IC50); type: biochemical
[3] = molecular target: FGFR2 (Homo sapiens, UniProt P21802); test: FGFR2 kinase inhibition (IC50); type: biochemical
Chain of FGFR2 (P21802 22-821): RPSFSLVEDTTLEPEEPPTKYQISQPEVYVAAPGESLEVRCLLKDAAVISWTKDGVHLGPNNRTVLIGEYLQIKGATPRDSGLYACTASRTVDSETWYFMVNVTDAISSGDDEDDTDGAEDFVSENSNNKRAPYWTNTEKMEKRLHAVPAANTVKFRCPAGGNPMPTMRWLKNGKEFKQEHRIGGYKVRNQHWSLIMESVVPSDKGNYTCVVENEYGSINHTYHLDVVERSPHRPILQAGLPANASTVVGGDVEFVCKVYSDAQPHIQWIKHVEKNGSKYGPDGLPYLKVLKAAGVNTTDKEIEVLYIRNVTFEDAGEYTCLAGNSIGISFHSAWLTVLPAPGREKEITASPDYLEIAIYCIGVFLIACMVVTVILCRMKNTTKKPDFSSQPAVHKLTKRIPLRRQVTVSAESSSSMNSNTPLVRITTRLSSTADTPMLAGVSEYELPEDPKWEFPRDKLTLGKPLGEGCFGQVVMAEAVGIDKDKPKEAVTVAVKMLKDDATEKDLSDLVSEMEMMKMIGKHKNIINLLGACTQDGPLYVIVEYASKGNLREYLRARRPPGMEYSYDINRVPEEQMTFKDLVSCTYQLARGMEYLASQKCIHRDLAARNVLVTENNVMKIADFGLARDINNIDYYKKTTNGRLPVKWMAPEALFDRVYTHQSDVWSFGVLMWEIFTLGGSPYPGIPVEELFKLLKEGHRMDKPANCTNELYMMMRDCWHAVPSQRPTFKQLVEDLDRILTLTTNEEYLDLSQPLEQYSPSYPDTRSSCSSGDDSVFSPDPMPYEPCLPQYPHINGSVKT

[4] = molecular target: FGFR3 (Homo sapiens, UniProt P22607); test: FGFR3 kinase inhibition (IC50); type: biochemical
Chain of FGFR3 (P22607 23-806): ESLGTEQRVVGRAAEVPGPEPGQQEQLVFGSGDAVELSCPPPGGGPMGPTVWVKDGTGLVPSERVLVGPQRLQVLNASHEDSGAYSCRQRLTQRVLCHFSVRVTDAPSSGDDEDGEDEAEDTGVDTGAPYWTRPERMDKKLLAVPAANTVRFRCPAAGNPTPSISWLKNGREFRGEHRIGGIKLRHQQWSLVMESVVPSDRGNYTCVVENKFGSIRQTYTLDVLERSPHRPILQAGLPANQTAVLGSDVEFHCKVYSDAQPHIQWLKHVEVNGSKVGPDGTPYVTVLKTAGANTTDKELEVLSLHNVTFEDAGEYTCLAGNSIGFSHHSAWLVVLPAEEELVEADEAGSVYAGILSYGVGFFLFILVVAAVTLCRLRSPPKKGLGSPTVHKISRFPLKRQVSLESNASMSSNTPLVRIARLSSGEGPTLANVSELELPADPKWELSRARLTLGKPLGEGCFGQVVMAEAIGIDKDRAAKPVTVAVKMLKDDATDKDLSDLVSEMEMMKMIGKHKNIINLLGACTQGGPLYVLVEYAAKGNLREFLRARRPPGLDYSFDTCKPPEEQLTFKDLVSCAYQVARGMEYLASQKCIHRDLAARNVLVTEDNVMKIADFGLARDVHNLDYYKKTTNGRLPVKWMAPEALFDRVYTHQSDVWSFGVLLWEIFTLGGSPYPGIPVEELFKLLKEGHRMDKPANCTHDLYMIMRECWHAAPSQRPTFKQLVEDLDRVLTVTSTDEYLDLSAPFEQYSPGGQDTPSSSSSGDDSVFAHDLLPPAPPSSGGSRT

[5] = MDCK permeability; type: in vitro ADME; settings: dog
[6] = Protein binding; type: in vitro ADME
[7] = tested on: Hepatocyte; test: Mouse hepatocyte clearance; type: in vitro ADME; settings: mouse hepatocytes; value ± SE
[8] = Mouse plasma stability; type: in vitro ADME; settings: value ± SE, read-out: Ms Plasma Stability t1/2 (SE)
[9] = Pharmacokinetics in mice (IP, IV, PO); type: in vivo; settings: for clearance / half-life / Vd / bioavailability / AUC(0-inf) / AUC(0-t) / Cmax / MRT inf / MRT last / Tmax: in vivo, mouse; for Vd: read-out: Vss
Protocol: FIG. 2A is the pharmacokinetic data of compound 1 administered by intraperitoneal injection (IP) into mice at 10 mg/kg, according to some embodiments of the present disclosure;
FIG. 2B is the pharmacokinetic data of compound 1 administered by intravenous injection (IV) into mice at 1 mg/kg and per os (PO) at 5 mg/kg, according to some embodiments of the present disclosure;

[10] = Solubility in 5% DMSO and 95% of (20% HPBC in PBS); type: physicochemical
Description: The inventive compound 1 improves the FGFR4-selective inhibitory effect.

[11] = Pharmacokinetics in mice (IP, IV, PO); settings: mouse, in vivo, PO 100 mg/kg
[12] = read-out: FGFR4 inhibition (IC50 class)
[13] = read-out: FGFR1 Inhibition (IC50 class)
[14] = read-out: FGFR2 Inhibition (IC50 class)
[15] = read-out: FGFR3 Inhibition (IC50 class)

Chain of FGFR4 (P22455 22-802): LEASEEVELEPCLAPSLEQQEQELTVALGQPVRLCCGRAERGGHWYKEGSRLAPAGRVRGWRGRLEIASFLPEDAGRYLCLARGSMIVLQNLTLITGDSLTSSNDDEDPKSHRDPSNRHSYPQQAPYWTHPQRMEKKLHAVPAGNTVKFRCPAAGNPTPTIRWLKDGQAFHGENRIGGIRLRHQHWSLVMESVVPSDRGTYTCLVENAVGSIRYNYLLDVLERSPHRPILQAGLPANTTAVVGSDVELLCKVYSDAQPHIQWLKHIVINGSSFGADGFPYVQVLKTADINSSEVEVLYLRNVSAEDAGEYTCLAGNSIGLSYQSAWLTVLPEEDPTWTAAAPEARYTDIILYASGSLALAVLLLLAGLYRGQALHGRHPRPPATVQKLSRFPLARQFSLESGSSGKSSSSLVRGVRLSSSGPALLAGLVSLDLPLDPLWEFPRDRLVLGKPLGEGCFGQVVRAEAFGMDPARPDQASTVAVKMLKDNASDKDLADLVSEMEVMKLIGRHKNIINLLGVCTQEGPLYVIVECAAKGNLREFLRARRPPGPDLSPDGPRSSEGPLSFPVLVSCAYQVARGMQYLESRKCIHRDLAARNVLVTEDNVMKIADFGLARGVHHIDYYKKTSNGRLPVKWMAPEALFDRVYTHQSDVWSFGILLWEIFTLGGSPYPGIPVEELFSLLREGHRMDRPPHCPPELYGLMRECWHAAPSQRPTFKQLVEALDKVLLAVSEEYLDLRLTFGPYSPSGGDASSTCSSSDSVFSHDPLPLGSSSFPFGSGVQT
Chain of FGFR1 (P11362 22-822): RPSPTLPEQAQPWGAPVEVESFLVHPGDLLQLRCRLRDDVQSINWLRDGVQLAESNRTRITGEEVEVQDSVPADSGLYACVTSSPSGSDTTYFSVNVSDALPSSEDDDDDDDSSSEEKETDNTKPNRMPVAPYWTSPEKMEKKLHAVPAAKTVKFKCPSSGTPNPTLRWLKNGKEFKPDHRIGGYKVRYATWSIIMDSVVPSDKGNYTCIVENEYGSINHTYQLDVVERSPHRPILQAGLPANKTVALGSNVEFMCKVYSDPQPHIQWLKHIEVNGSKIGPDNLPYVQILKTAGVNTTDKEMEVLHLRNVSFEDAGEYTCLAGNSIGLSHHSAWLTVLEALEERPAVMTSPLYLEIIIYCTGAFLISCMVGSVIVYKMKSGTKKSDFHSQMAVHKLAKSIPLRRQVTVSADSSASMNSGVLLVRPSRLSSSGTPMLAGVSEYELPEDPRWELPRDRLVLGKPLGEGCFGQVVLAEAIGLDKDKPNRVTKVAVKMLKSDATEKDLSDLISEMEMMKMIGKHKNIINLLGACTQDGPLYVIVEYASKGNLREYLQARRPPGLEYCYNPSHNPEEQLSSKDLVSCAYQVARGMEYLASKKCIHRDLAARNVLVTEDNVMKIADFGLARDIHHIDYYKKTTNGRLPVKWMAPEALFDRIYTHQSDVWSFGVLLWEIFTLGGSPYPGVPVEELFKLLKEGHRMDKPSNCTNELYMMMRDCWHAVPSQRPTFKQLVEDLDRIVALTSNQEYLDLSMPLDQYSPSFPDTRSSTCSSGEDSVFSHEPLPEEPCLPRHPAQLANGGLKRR

C=CC(=O)N[C@H]1CCC[C@H]1Nc1cc(-c2cccnc2Nc2c(Cl)c(OC)cc(OC)c2Cl)ncn1 (single isomer, unassigned) [Compound 16, N-[cis-2-[[6-[2-(2,6-dichloro-3,5-dimethoxy-anilino)-3-pyridyl]pyrimidin-4-yl]amino]cyclopentyl]prop-2-enamide]
IC50 [1, 12]: 100 to 1000 nM

C=CC(=O)N[C@H]1COC[C@H]1Nc1cc(-c2cccnc2Nc2c(Cl)c(OC)cc(OC)c2Cl)ncn1 [Compound 1]
IC50 [2, 13]: ≥ 1000 nM | IC50 ([2]; read-out: IC50 towards FGFR1): 1280 nM | IC50 [3, 14]: ≥ 1000 nM | IC50 ([3]; read-out: IC50 towards FGFR2): 1870 nM | IC50 [4, 15]: ≥ 1000 nM | IC50 ([4]; read-out: IC50 towards FGFR3): 4440 nM | IC50 [1, 12]: 10 to 100 nM | IC50 ([1]; read-out: IC50 towards FGFR4): 20 nM | Papp A→B [5]: 25.8 ×10⁻⁶ cm/s | fraction unbound [6]: 0.08 | Hepatocyte Clin Ms (SE) [7]: 43.6 ± 1.3 µL/min/1e6 cells | half-life [8]: 19.1 ± 5.78 h | clearance ([9]; intravenous, Table 2 summary): 26.7 mL/min/kg | half-life ([9]; intravenous, Table 2 summary): 0.52 h | Vd ([9]; intravenous, Table 2 summary): 0.88 L/kg | bioavailability ([9]; oral, Table 2 summary): 20.9% | AUC(0-inf) ([9]; mice, IP 10 mg/kg): 9610 ng·h/mL | AUC(0-t) ([9]; mice, IP 10 mg/kg): 9610 ng·h/mL | Cmax ([9]; mice, IP 10 mg/kg): 14900 ng/mL | MRT inf ([9]; mice, IP 10 mg/kg): 0.67 h | MRT last ([9]; mice, IP 10 mg/kg): 0.67 h | Tmax ([9]; mice, IP 10 mg/kg): 0.25 h | half-life ([9]; mice, IP 10 mg/kg): 2.81 h | AUC(0-inf) ([9]; mice, IV 1 mg/kg): 621 ng·h/mL | AUC(0-t) ([9]; mice, IV 1 mg/kg): 618 ng·h/mL | Cmax ([9]; mice, IV 1 mg/kg): 849 ng/mL | MRT inf ([9]; mice, IV 1 mg/kg): 0.537 h | MRT last ([9]; mice, IV 1 mg/kg): 0.515 h | Tmax ([9]; mice, IV 1 mg/kg): 0.083 h | clearance ([9]; mice, IV 1 mg/kg): 27.2 mL/min/kg | half-life ([9]; mice, IV 1 mg/kg): 0.522 h | Vd ([9]; mice, IV 1 mg/kg): 0.876 L/kg | AUC(0-inf) ([9]; mice, PO 5 mg/kg): 648 ng·h/mL | AUC(0-t) ([9]; mice, PO 5 mg/kg): 465 ng·h/mL | Cmax ([9]; mice, PO 5 mg/kg): 119 ng/mL | MRT inf ([9]; mice, PO 5 mg/kg): 4.02 h | MRT last ([9]; mice, PO 5 mg/kg): 3.42 h | Tmax ([9]; mice, PO 5 mg/kg): 3.17 h | bioavailability ([9]; mice, PO 5 mg/kg): 20.9% | half-life ([9]; mice, PO 5 mg/kg): 2.73 h | solubility [10]: much-improved solubility

C=CC(=O)NC1CC1Nc1cc(-c2cccnc2Nc2c(Cl)c(OC)cc(OC)c2Cl)ncn1 (centres unmarked) [Compound 2]
IC50 [2, 13]: 10 to 100 nM | IC50 [3, 14]: 100 to 1000 nM | IC50 [4, 15]: 100 to 1000 nM | IC50 [1, 12]: ≤ 10 nM

C=CC(=O)N[C@H]1CC[C@H]1Nc1cc(-c2cccnc2Nc2c(Cl)c(OC)cc(OC)c2Cl)ncn1 [Compound 3]
IC50 [1, 12]: 100 to 1000 nM

C=CC(=O)N[C@H]1CCOC[C@H]1Nc1cc(-c2cccnc2Nc2c(Cl)c(OC)cc(OC)c2Cl)ncn1 [Compound 4]
IC50 [1, 12]: 10 to 100 nM

C=CC(=O)Nc1cccc(C)c1Nc1cc(-c2cccnc2Nc2c(Cl)c(OC)cc(OC)c2Cl)ncn1 [Compound 5, N-(2-((6-(2-((2,6-dichloro-3,5-dimethoxyphenyl)amino)pyridin-3-yl)pyrimidin-4-yl)amino)-3-methylphenyl)acrylamide, reference compound]
Papp A→B [5]: 11.4 ×10⁻⁶ cm/s | Hepatocyte Clin Ms (SE) [7]: 41.7 ± 1.73 µL/min/1e6 cells | half-life [8]: 3.69 ± 0.928 h | clearance ([9]; intravenous, Table 2 summary): 14 mL/min/kg | half-life ([9]; intravenous, Table 2 summary): 15 h | bioavailability ([9]; oral, Table 2 summary): 8% | T1/2 ([9]; mice, IP 10 mg/kg): 1.23 h | AUC(0-inf) ([9]; mice, IP 10 mg/kg): 1280 ng·h/mL | AUC(0-t) ([9]; mice, IP 10 mg/kg): 1270 ng·h/mL | Cmax ([9]; mice, IP 10 mg/kg): 865 ng/mL | MRT inf ([9]; mice, IP 10 mg/kg): 1.66 h | MRT last ([9]; mice, IP 10 mg/kg): 1.57 h | Tmax ([9]; mice, IP 10 mg/kg): 0.25 h | AUC(0-inf) ([9]; mice, IV 5 mg/kg): 1240 ng·h/mL | AUC(0-t) ([9]; mice, IV 5 mg/kg): 896 ng·h/mL | Cmax ([9]; mice, IV 5 mg/kg): 470 ng/mL | MRT inf ([9]; mice, IV 5 mg/kg): 18.5 h | MRT last ([9]; mice, IV 5 mg/kg): 7.71 h | Tmax ([9]; mice, IV 5 mg/kg): 0.083 h | clearance ([9]; mice, IV 5 mg/kg): 13.9 mL/min/kg | half-life ([9]; mice, IV 5 mg/kg): 15.1 h | Vd ([9]; mice, IV 5 mg/kg): 15.3 L/kg | Cmax ([9]; mice, PO 100 mg/kg): 180 ng/mL | MRT last ([9]; mice, PO 100 mg/kg): 6.1 h | solubility [10]: poor solubility | AUC(0-t) [11]: 1450 ng·h/mL | Tmax [11]: 6.67 h | bioavailability [11]: 8.09%

C=CC(=O)Nc1cc(OC2CN(C)C2)ccc1Nc1cc(-c2cccnc2Nc2c(Cl)c(OC)cc(OC)c2Cl)ncn1 [Compound 6, N-[2-[[6-[2-(2,6-dichloro-3,5-dimethoxy-anilino)-3-pyridyl]pyrimidin-4-yl]amino]-5-(1-methylazetidin-3-yl)oxy-phenyl]prop-2-enamide]
IC50 [2, 13]: 100 to 1000 nM | IC50 [3, 14]: 100 to 1000 nM | IC50 [4, 15]: ≥ 1000 nM | IC50 [1, 12]: ≤ 10 nM

C=CC(=O)Nc1cc(OCC2CN(C)C2)ccc1Nc1cc(-c2cccnc2Nc2c(Cl)c(OC)cc(OC)c2Cl)ncn1 [Compound 7, N-[2-[[6-[2-(2,6-dichloro-3,5-dimethoxy-anilino)-3-pyridyl]pyrimidin-4-yl]amino]-5-[(1-methylazetidin-3-yl)methoxy]phenyl]prop-2-enamide]
IC50 [2, 13]: 100 to 1000 nM | IC50 [3, 14]: 100 to 1000 nM | IC50 [4, 15]: ≥ 1000 nM | IC50 [1, 12]: ≤ 10 nM

C=CC(=O)Nc1cc(OC2CCN(C)CC2)ccc1Nc1cc(-c2cccnc2Nc2c(Cl)c(OC)cc(OC)c2Cl)ncn1 [Compound 8, N-[2-[[6-[2-(2,6-dichloro-3,5-dimethoxy-anilino)-3-pyridyl]pyrimidin-4-yl]amino]-5-[(1-methyl-4-piperidyl)oxy]phenyl]prop-2-enamide]
IC50 [2, 13]: ≥ 1000 nM | IC50 [3, 14]: 100 to 1000 nM | IC50 [4, 15]: ≥ 1000 nM | IC50 [1, 12]: ≤ 10 nM

C=CC(=O)Nc1cc(OC2CCN(C)C2)ccc1Nc1cc(-c2cccnc2Nc2c(Cl)c(OC)cc(OC)c2Cl)ncn1 (centres unmarked) [Compound 9, N-[2-[[6-[2-(2,6-dichloro-3,5-dimethoxy-anilino)-3-pyridyl]pyrimidin-4-yl]amino]-5-(1-methylpyrrolidin-3-yl)oxy-phenyl]prop-2-enamide]
IC50 [2, 13]: 100 to 1000 nM | IC50 [3, 14]: 100 to 1000 nM | IC50 [4, 15]: ≥ 1000 nM | IC50 [1, 12]: ≤ 10 nM

C=CC(=O)Nc1cc(OC2CCOC2)ccc1Nc1cc(-c2cccnc2Nc2c(Cl)c(OC)cc(OC)c2Cl)ncn1 (centres unmarked) [Compound 10, N-[2-[[6-[2-(2,6-dichloro-3,5-dimethoxy-anilino)-3-pyridyl]pyrimidin-4-yl]amino]-5-tetrahydrofuran-3-yloxy-phenyl]prop-2-enamide]
IC50 [2, 13]: ≥ 1000 nM | IC50 [3, 14]: ≥ 1000 nM | IC50 [4, 15]: ≥ 1000 nM | IC50 [1, 12]: ≤ 10 nM

C=CC(=O)Nc1cc(OC2COC2)ccc1Nc1cc(-c2cccnc2Nc2c(Cl)c(OC)cc(OC)c2Cl)ncn1 [Compound 11, N-[2-[[6-[2-(2,6-dichloro-3,5-dimethoxy-anilino)-3-pyridyl]pyrimidin-4-yl]amino]-5-(oxetan-3-yloxy)phenyl]prop-2-enamide]
IC50 [2, 13]: ≥ 1000 nM | IC50 [3, 14]: ≥ 1000 nM | IC50 [4, 15]: ≥ 1000 nM | IC50 [1, 12]: ≤ 10 nM

C=CC(=O)Nc1cc(OCCN2CCCC2)ccc1Nc1cc(-c2cccnc2Nc2c(Cl)c(OC)cc(OC)c2Cl)ncn1 [Compound 12, N-[2-[[6-[2-(2,6-dichloro-3,5-dimethoxy-anilino)-3-pyridyl]pyrimidin-4-yl]amino]-5-(2-pyrrolidin-1-ylethoxy)phenyl]prop-2-enamide]
IC50 [2, 13]: 100 to 1000 nM | IC50 [3, 14]: 100 to 1000 nM | IC50 [4, 15]: ≥ 1000 nM | IC50 [1, 12]: ≤ 10 nM

C=CC(=O)Nc1ncn(C)c1Nc1cc(-c2cccnc2Nc2c(Cl)c(OC)cc(OC)c2Cl)ncn1 [Compound 13, N-[5-[[6-[2-(2,6-dichloro-3,5-dimethoxy-anilino)-3-pyridyl]pyrimidin-4-yl]amino]-1-methyl-imidazol-4-yl]prop-2-enamide]
IC50 [1, 12]: ≥ 1000 nM

C=CC(=O)Nc1cc(OCCN(C)C)ccc1Nc1cc(-c2cccnc2Nc2c(Cl)c(OC)cc(OC)c2Cl)ncn1 [Compound 14]
IC50 [2, 13]: ≥ 1000 nM | IC50 [3, 14]: ≥ 1000 nM | IC50 [4, 15]: ≥ 1000 nM | IC50 [1, 12]: ≤ 10 nM

C=CC(=O)Nc1cc(OCCN(CC)CC)ccc1Nc1cc(-c2cccnc2Nc2c(Cl)c(OC)cc(OC)c2Cl)ncn1 [Compound 15]
IC50 [2, 13]: ≥ 1000 nM | IC50 [3, 14]: ≥ 1000 nM | IC50 [4, 15]: ≥ 1000 nM | IC50 [1, 12]: ≤ 10 nM
